One series deals with T1, human MAO-A (Homo sapiens, UniProt P21397).
T1 construct: purchased MilliporeSigma (Milan, Italy); host or cells: baculovirus-infected insect cells (BTI-TN-5B1-4)
T1 sequence (P21397 1-527): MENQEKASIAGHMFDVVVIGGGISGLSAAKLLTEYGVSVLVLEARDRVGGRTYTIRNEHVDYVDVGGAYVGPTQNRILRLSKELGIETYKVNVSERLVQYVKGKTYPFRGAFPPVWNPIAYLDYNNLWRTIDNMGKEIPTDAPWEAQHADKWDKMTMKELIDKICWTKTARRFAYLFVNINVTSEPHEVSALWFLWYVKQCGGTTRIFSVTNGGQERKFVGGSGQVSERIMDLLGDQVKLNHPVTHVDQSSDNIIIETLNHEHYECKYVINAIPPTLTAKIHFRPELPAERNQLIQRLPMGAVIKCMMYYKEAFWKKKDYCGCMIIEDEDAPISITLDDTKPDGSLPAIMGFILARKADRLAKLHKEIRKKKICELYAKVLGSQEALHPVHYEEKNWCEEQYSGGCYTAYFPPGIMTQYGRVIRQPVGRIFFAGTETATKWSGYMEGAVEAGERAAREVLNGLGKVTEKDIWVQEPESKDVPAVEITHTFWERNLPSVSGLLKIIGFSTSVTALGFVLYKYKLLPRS
The series can be described thus: MAO-Glo bioluminescent MAO-A inhibition assay. It is filed as biochemical. Particulars: Table 1.

Another series concerns the target T2, human MAO-B (Homo sapiens, UniProt P27338).
T2 construct: purchased MilliporeSigma (Milan, Italy); host or cells: baculovirus-infected insect cells (BTI-TN-5B1-4)
T2 sequence (P27338 1-520): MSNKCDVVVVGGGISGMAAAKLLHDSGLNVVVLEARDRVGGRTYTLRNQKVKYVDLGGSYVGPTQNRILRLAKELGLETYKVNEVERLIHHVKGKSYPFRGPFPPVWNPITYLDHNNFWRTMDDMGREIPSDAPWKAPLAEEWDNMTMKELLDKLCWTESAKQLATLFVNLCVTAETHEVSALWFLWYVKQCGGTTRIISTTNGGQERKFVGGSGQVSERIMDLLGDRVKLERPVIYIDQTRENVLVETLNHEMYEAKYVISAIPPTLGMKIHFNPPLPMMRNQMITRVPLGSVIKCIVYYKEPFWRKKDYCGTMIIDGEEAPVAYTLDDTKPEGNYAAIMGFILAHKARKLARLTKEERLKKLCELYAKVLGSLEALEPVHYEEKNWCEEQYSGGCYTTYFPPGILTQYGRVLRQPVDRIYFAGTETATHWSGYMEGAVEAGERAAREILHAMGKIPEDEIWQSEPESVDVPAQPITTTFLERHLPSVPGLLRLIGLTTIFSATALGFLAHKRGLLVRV
The series can be described thus: MAO-Glo bioluminescent MAO-B inhibition assay. It is filed as biochemical. Conditions: for Selectivity of inhibition between MAO-A and MAO-B, in words: comparison of MAO-A and MAO-B IC50 of Table 1.

On the set-up of series [1]: method as in PMID 21370449. Conditions: after consumption of an apple smoothie; cited from earlier work.
Setting [2] is: molarity, standard metabolites, read-out: IC50 Value MAO-A M.
[3] abbreviates: Table 1, MAO-Glo, mean of quadruplicate determinations, kiwifruit as mg fruit fresh weight/mL, read-out: IC50 Value MAO-B (mg/mL) (converted).
Where [4] appears, read: Table 1, molarity, standard metabolites, read-out: IC50 Value MAO-B M.

Read-outs that look alike come from different tables or passages of the source.

On to `O=C(O)/C=C/c1ccc(O)c(O)c1` [Caffeic acid, caffeic acid], for which the IC50 at human MAO-A (MAO-Glo, mean of quadruplicate determinations, kiwifruit as mg fruit fresh weight/mL, read-out: IC50 Value MAO-A (mg/mL) (converted)) is 2.72 mM; on human MAO-A (setting [2]) it was 2.75 ± 0.126 mM; at human MAO-B (setting [3]), 0.444 mM; on human MAO-B (setting [4]), 0.439 ± 0.03 mM.
For the molecule `O=C(O)[C@]1(O)C[C@@H](O)[C@@H](O)[C@H](O)C1` [D-(−)-Quinic acid, D-(−)-quinic acid], the IC50 at human MAO-B (setting [3]) is 34.3 mM; on human MAO-B (setting [4]), 34.4 ± 1.31 mM. Further, on human MAO-B, the “Selectivity of inhibition between MAO-A and MAO-B, in words” value was “selective activity against MAO-B”. Further, in series [1], the “Level detected in ileostomy fluids” value is ~ 70%.
Turning to `O=c1ccc2cc(O[C@@H]3O[C@H](CO)[C@@H](O)[C@H](O)[C@H]3O)c(O)cc2o1` [Esculin], the IC50 was 11.5 mM against human MAO-A (IC50 Value MAO-A (mg/mL), MAO-Glo, mean of quadruplicate determinations, kiwifruit as mg fruit fresh weight/mL); 11.5 ± 0.43 mM on human MAO-A (IC50 Value MAO-A M, molarity, standard metabolites); 12 mM at human MAO-B (setting [3]); 12.1 ± 0.372 mM at human MAO-B (setting [4]). In addition, at human MAO-B, the “Selectivity of inhibition between MAO-A and MAO-B, in words” value is reported as “inhibited both enzymes similarly”.
Consider (+)-catechin hydrate, for which, on human MAO-A (MAO-Glo, mean of quadruplicate determinations, kiwifruit as mg fruit fresh weight/mL), the “IC50 Value MAO-A” value is 1880 ± 40 µg/mL. Also, the IC50 at human MAO-A (setting [2]) was found to be 6.46 ± 0.121 mM; on human MAO-B (setting [4]), 4.03 ± 0.122 mM. For the same molecule, at human MAO-B (Table 1, MAO-Glo, mean of quadruplicate determinations, kiwifruit as mg fruit fresh weight/mL), the “IC50 Value MAO-B” value was determined as 1170 ± 40 µg/mL. Moreover, the “Selectivity of inhibition between MAO-A and MAO-B, in words” value on human MAO-B was “inhibited both enzymes similarly”.

Source of the values: PMC8838583, “Inhibition of Human Monoamine Oxidases A and B by Specialized Metabolites Present in Fresh Common Fruits and Vegetables” (Plants, 2022).
